Measurements taken from US4705777A, “Cationic oligopeptides having microbicidal activity” (priority 1985, dated 1987).

Assays:
Type in all cases: cell-based
[1] = system: Staphylococcus aureus 566; experiment: Antibacterial activity of rabbit granulocyte peptides (Table III), S. aureus 566; details: 50 μg/ml, 20 min, 37° C., 10 mM sodium phosphate buffer pH 7.4
Method: (§1) The procedure parallels that reported in Lehrer et al., Infection and Immunity (1983) 42:10-14. […] The subculture was grown at 37° C. for 4 h with shaking to provide mid-logarithmic phase organisms that were washed twice with buffer by centrifugation (2000×g, 10 min), and then quantitated spectrophotometrically at 620 nm, with reference to previously established CFU/Optical Density relationships. Bacteria were suspended and experiments were performed in 10 mM sodium phosphate buffer, pH 7.4. In some experiments, buffers were supplemented with 0.14 M NaCl ("high" ionic strength). […] In some experiments, 10 mM phosphate buffer with a pH of 5.8 and conductivity of 1.36 mMHO was used. Peptide "stock solutions" were prepared at 500 μg/ml (microbiuret assay) in 0.01% acetic acid, and stored at -20° C. Typically, incubation mixtures contained 1×10^5 bacterial CFU and 5 μg of peptide in 100 μl of buffer. After incubation for 20 min at 37° C., 900 μl of the same buffer was added, and two additional serial tenfold dilutions were made with that buffer. Duplicate 100 μl aliquots from the three serial dilutions were spread over appropriate nutrient agar plates and incubated for 24-72 h to insure full colony development. Killing of microorganisms was expressed as the logarithm10 No /N, where No represented the initial colony count and N represented the colony count after incubation with peptide. There was no significant alteration in colony count when any of the test organisms were exposed to peptide-free buffer for 20 min.

[2] = system: Staphylococcus aureus 502A; experiment: Antibacterial activity of rabbit granulocyte peptides (Table III), S. aureus 502A; details: 50 μg/ml, 20 min, 37° C., 10 mM sodium phosphate buffer pH 7.4
Method: as §1

[3] = system: Staphylococcus aureus J.F.; experiment: Antibacterial activity of rabbit granulocyte peptides (Table III), S. aureus J.F.; details: 50 μg/ml, 20 min, 37° C., 10 mM sodium phosphate buffer pH 7.4
Method: as §1

[4] = system: Staphylococcus epidermidis UCLA-622; experiment: Antibacterial activity of rabbit granulocyte peptides (Table III), S. epidermidis; details: 50 μg/ml, 20 min, 37° C., 10 mM sodium phosphate buffer pH 7.4
Method: as §1

[5] = system: Streptococcus pneumoniae Type III; experiment: Antibacterial activity of rabbit granulocyte peptides (Table III), S. pneumoniae; details: 50 μg/ml, 20 min, 37° C., 10 mM sodium phosphate buffer pH 7.4
Method: as §1

[6] = system: Streptococcus agalactiae Type-I-A; experiment: Antibacterial activity of rabbit granulocyte peptides (Table III), S. agalactiae Type-I-A; details: 50 μg/ml, 20 min; for Bactericidal activity log10 No /N, Streptococcus agalactiae Type 1A, pH 5.8: 10 mM phosphate buffer pH 5.8; for Bactericidal activity log10 No /N, Streptococcus agalactiae Type-I-A: 37° C., 10 mM sodium phosphate buffer pH 7.4; for Bactericidal activity log10 No /N, Streptococcus agalactiae Type 1A, "High" ionic strength: buffer pH 7.4 supplemented with 0.14 M NaCl
Method: as §1

[7] = system: Streptococcus agalactiae Type IIIU; experiment: Antibacterial activity of rabbit granulocyte peptides (Table III), S. agalactiae Type IIIU; details: 50 μg/ml, 20 min, 37° C., 10 mM sodium phosphate buffer pH 7.4
Method: as §1

[8] = system: Listeria monocytogenes 450; experiment: Antibacterial activity of rabbit granulocyte peptides (Table III), L. monocytogenes; details: 50 μg/ml, 20 min; for Bactericidal activity log10 No /N, Listeria monocytogenes 450, pH 5.8: 10 mM phosphate buffer pH 5.8; for Bactericidal activity log10 No /N, Listeria monocytogenes 450: 37° C., 10 mM sodium phosphate buffer pH 7.4; for Bactericidal activity log10 No /N, Listeria monocytogenes 450, "High" ionic strength: buffer pH 7.4 supplemented with 0.14 M NaCl
Method: as §1

[9] = system: Pseudomonas aeruginosa PAO 579; experiment: Antibacterial activity of rabbit granulocyte peptides (Table III), P. aeruginosa; details: 50 μg/ml, 20 min; for Bactericidal activity log10 No /N, Pseudomonas aeruginosa PAO 579, pH 5.8: 10 mM phosphate buffer pH 5.8; for Bactericidal activity log10 No /N, Pseudomonas aeruginosa PAO 579: 37° C., 10 mM sodium phosphate buffer pH 7.4; for Bactericidal activity log10 No /N, Pseudomonas aeruginosa PAO 579, "High" ionic strength: buffer pH 7.4 supplemented with 0.14 M NaCl
Method: as §1

[10] = system: Escherichia coli ATCC 29648; experiment: Antibacterial activity of rabbit granulocyte peptides (Table III), E. coli; details: 50 μg/ml, 20 min, 37° C., 10 mM sodium phosphate buffer pH 7.4
Method: as §1

[11] = system: Klebsiella pneumoniae ATCC 13883; experiment: Antibacterial activity of rabbit granulocyte peptides (Table III), K. pneumoniae; details: 50 μg/ml, 20 min; for Bactericidal activity log10 No /N, Klebsiella pneumoniae ATCC 13883, pH 5.8: 10 mM phosphate buffer pH 5.8; for Bactericidal activity log10 No /N, Klebsiella pneumoniae ATCC 13883: 37° C., 10 mM sodium phosphate buffer pH 7.4; for Bactericidal activity log10 No /N, Klebsiella pneumoniae ATCC 13883, "High" ionic strength: buffer pH 7.4 supplemented with 0.14 M NaCl
Method: as §1

Serratia marcescens = experiment: Antibacterial activity of rabbit granulocyte peptides (Table III), S. marcescens; details: 50 μg/ml, 20 min, 37° C., 10 mM sodium phosphate buffer pH 7.4
Method: as §1

[12] = system: Hemophilus influenzae Type 3A; experiment: Antibacterial activity of rabbit granulocyte peptides (Table III), H. influenzae; details: 50 μg/ml, 20 min, 37° C., 10 mM sodium phosphate buffer pH 7.4
Method: as §1

[13] = system: Bordetella bronchiseptica UCLA-342; experiment: Antibacterial activity of rabbit granulocyte peptides (Table III), B. bronchiseptica; details: 50 μg/ml, 20 min, 37° C., 10 mM sodium phosphate buffer pH 7.4
Method: as §1

val phe cys thr cys arg gly phe leu cys gly ser gly glu arg ala ser gly ser cys thr ile asn gly val arg his thr leu cys cys arg [NP-5]
Bactericidal activity log10 No /N, Staphylococcus aureus 566 [1]: 0.4 log10 | Bactericidal activity log10 No /N, Staphylococcus aureus 502A [2]: 0.2 log10 | Bactericidal activity log10 No /N, Staphylococcus aureus J.F. [3]: 0.1 log10 | Bactericidal activity log10 No /N, Staphylococcus epidermidis UCLA-622 [4]: 0.4 log10 | Bactericidal activity log10 No /N, Streptococcus pneumoniae Type III [5]: 1.9 log10 | Bactericidal activity log10 No /N, Streptococcus agalactiae Type 1A, pH 5.8 [6]: 0.0 log10 | Bactericidal activity log10 No /N, Streptococcus agalactiae Type-I-A [6]: 0.5 log10 | Bactericidal activity log10 No /N, Streptococcus agalactiae Type 1A, "High" ionic strength [6]: 0.0 log10 | Bactericidal activity log10 No /N, Streptococcus agalactiae Type IIIU [7]: 0.4 log10 | Bactericidal activity log10 No /N, Listeria monocytogenes 450, pH 5.8 [8]: 0.1 log10 | Bactericidal activity log10 No /N, Listeria monocytogenes 450 [8]: 0.5 log10 | Bactericidal activity log10 No /N, Listeria monocytogenes 450, "High" ionic strength [8]: 0.2 log10 | Bactericidal activity log10 No /N, Pseudomonas aeruginosa PAO 579, pH 5.8 [9]: 0.1 log10 | Bactericidal activity log10 No /N, Pseudomonas aeruginosa PAO 579 [9]: 0.7 log10 | Bactericidal activity log10 No /N, Pseudomonas aeruginosa PAO 579, "High" ionic strength [9]: 0.0 log10 | Bactericidal activity log10 No /N, Escherichia coli ATCC 29648 [10]: 0.2 log10 | Bactericidal activity log10 No /N, Klebsiella pneumoniae ATCC 13883, pH 5.8 [11]: 0.1 log10 | Bactericidal activity log10 No /N, Klebsiella pneumoniae ATCC 13883 [11]: 1.2 log10 | Bactericidal activity log10 No /N, Klebsiella pneumoniae ATCC 13883, "High" ionic strength [11]: 0.0 log10 | Bactericidal activity log10 No /N, Serratia marcescens (Serratia marcescens): 1.2 log10 | Bactericidal activity log10 No /N, Hemophilus influenzae Type 3A [12]: 1.2 log10 | Bactericidal activity log10 No /N, Bordetella bronchiseptica UCLA-342 [13]: 0.0 log10

val ser cys thr cys arg arg phe ser cys gly phe gly glu arg ala ser gly ser cys thr val asn gly val arg his thr leu cys cys arg arg [NP-4]
Bactericidal activity log10 No /N, Staphylococcus aureus 566 [1]: 0.2 log10 | Bactericidal activity log10 No /N, Staphylococcus aureus 502A [2]: 0.1 log10 | Bactericidal activity log10 No /N, Staphylococcus aureus J.F. [3]: 0.1 log10 | Bactericidal activity log10 No /N, Staphylococcus epidermidis UCLA-622 [4]: 0.2 log10 | Bactericidal activity log10 No /N, Streptococcus pneumoniae Type III [5]: 4.3 log10 | Bactericidal activity log10 No /N, Streptococcus agalactiae Type 1A, pH 5.8 [6]: 0.0 log10 | Bactericidal activity log10 No /N, Streptococcus agalactiae Type-I-A [6]: 0.1 log10 | Bactericidal activity log10 No /N, Streptococcus agalactiae Type 1A, "High" ionic strength [6]: 0.0 log10 | Bactericidal activity log10 No /N, Streptococcus agalactiae Type IIIU [7]: 0.2 log10 | Bactericidal activity log10 No /N, Listeria monocytogenes 450, pH 5.8 [8]: 0.0 log10 | Bactericidal activity log10 No /N, Listeria monocytogenes 450 [8]: 0.1 log10 | Bactericidal activity log10 No /N, Listeria monocytogenes 450, "High" ionic strength [8]: 0.0 log10 | Bactericidal activity log10 No /N, Pseudomonas aeruginosa PAO 579, pH 5.8 [9]: 0.0 log10 | Bactericidal activity log10 No /N, Pseudomonas aeruginosa PAO 579 [9]: 0.2 log10 | Bactericidal activity log10 No /N, Pseudomonas aeruginosa PAO 579, "High" ionic strength [9]: 0.0 log10 | Bactericidal activity log10 No /N, Escherichia coli ATCC 29648 [10]: 0.1 log10 | Bactericidal activity log10 No /N, Klebsiella pneumoniae ATCC 13883, pH 5.8 [11]: 0.3 log10 | Bactericidal activity log10 No /N, Klebsiella pneumoniae ATCC 13883 [11]: 0.2 log10 | Bactericidal activity log10 No /N, Klebsiella pneumoniae ATCC 13883, "High" ionic strength [11]: 0.0 log10 | Bactericidal activity log10 No /N, Serratia marcescens (Serratia marcescens): 1.3 log10 | Bactericidal activity log10 No /N, Hemophilus influenzae Type 3A [12]: 1.3 log10 | Bactericidal activity log10 No /N, Bordetella bronchiseptica UCLA-342 [13]: 0.1 log10
